Results as given in patent US11540518B2, “Fungicidal oxadiazoles” (FMC Corporation, priority 2017, dated 2023).

What was measured:
Format in all cases: in vivo
Phakopsora pachyrhizi = assay: Test A: Asian soybean rust control on soybean seedlings; conditions: sprayed to run-off on soybean seedlings, inoculated the following day, 100 = 100% disease control, 0 = no control
Source text: General protocol for preparing test suspensions for Tests A-C: the test compounds were first dissolved in acetone in an amount equal to 3% of the final volume and then suspended at the desired concentration (in ppm) in acetone and purified water (50/50 mix by volume) containing 250 ppm of the surfactant PEG400 (polyhydric alcohol esters). The resulting test suspensions were then used in Tests A-C.
The test solution was sprayed to the point of run-off on soybean seedlings. The following day the seedlings were inoculated with a spore suspension of Phakopsora pachyrhizi (the causal agent of Asian soybean rust) and incubated in a saturated atmosphere at 22° C. for 24 h, and then moved to a growth chamber at 22° C. for 8 days, after which time visual disease ratings were made.
Results for Tests A-C are given in Table A. In the Table, a rating of 100 indicates 100% disease control and a rating of 0 indicates no disease control (relative to the controls). A dash (-) indicates the compound was not tested.

Zymoseptoria tritici = assay: Test B: wheat leaf blotch control on wheat seedlings; conditions: sprayed to run-off on wheat seedlings, inoculated the following day, 100 = 100% disease control, 0 = no control
Source text: (§1) General protocol for preparing test suspensions for Tests A-C: the test compounds were first dissolved in acetone in an amount equal to 3% of the final volume and then suspended at the desired concentration (in ppm) in acetone and purified water (50/50 mix by volume) containing 250 ppm of the surfactant PEG400 (polyhydric alcohol esters). The resulting test suspensions were then used in Tests A-C. The test solution was sprayed to the point of run-off on wheat seedlings. The following day the seedlings were inoculated with a spore suspension of Zymoseptoria tritici (the causal agent of wheat leaf blotch) and incubated in a saturated atmosphere at 24° C. for 48 h, and then moved to a growth chamber at 20° C. for 17 days, after which time disease ratings were made. Results for Tests A-C are given in Table A. In the Table, a rating of 100 indicates 100% disease control and a rating of 0 indicates no disease control (relative to the controls). A dash (-) indicates the compound was not tested.

[1] = test system: Puccinia recondita f. sp. tritici; assay: Test C: wheat leaf rust control on wheat seedlings; conditions: sprayed to run-off on wheat seedlings, inoculated the following day, 100 = 100% disease control, 0 = no control
Source text: as §1, with “Puccinia recondita f. sp.” for “Zymoseptoria”, “rust)” for “blotch)”, “20°” for “24°”, “24” for “48”, “6” for “17”

[2] = 250 ppm (incl. values marked * = tested at 250 ppm)

CCC(C)NC(=O)OCc1ccc(-c2noc(C(F)(F)F)n2)cc1 (racemic) [Compound 14] was tested, and the “Test A disease control rating” value (Phakopsora pachyrhizi; 250 ppm) was 100%, the “Test B disease control rating” value (Zymoseptoria tritici; [2]) was 84% and the “Test C disease control rating” value ([1]; 250 ppm) was 100%.
With O=C(Nc1ccccc1)OCc1ccc(-c2noc(C(F)(F)F)n2)cc1 [Compound 1] the “Test A disease control rating” value (Phakopsora pachyrhizi; 270 ppm) was 100%, the “Test B disease control rating” value (Zymoseptoria tritici; 270 ppm) was 79% and the “Test C disease control rating” value ([1]; 270 ppm) was 100%.
For CCNC(=O)OCc1ccc(-c2noc(C(F)(F)F)n2)cc1 [Compound 2], the “Test A disease control rating” value (Phakopsora pachyrhizi; 260 ppm) was 100%, the “Test B disease control rating” value (Zymoseptoria tritici; 260 ppm) was 99% and the “Test C disease control rating” value ([1]; 260 ppm) was 100%.
CC(C)NC(=O)OCc1ccc(-c2noc(C(F)(F)F)n2)cc1 [Compound 3] was tested, and the “Test A disease control rating” value (Phakopsora pachyrhizi; 250 ppm) was 100%, the “Test B disease control rating” value (Zymoseptoria tritici; [2]) was 73% and the “Test C disease control rating” value ([1]; 250 ppm) was 100%.
For CCOC(=O)CNC(=O)OCc1ccc(-c2noc(C(F)(F)F)n2)cc1 [Compound 4], the “Test A disease control rating” value (Phakopsora pachyrhizi; 260 ppm) was 100%, the “Test B disease control rating” value (Zymoseptoria tritici; 260 ppm) was 46% and the “Test C disease control rating” value ([1]; 260 ppm) was 100%.
With CN(C)C(=O)OCc1ccc(-c2noc(C(F)(F)F)n2)cc1 [Compound 6] the “Test A disease control rating” value (Phakopsora pachyrhizi; 260 ppm) was 100%, the “Test B disease control rating” value (Zymoseptoria tritici; 260 ppm) was 76% and the “Test C disease control rating” value ([1]; 260 ppm) was 100%.
For O=C(NCCCl)OCc1ccc(-c2noc(C(F)(F)F)n2)cc1 [Compound 7], the “Test A disease control rating” value (Phakopsora pachyrhizi; 260 ppm) was 100%, the “Test B disease control rating” value (Zymoseptoria tritici; 260 ppm) was 98% and the “Test C disease control rating” value ([1]; 260 ppm) was 100%.
In the case of O=C(OCc1ccc(-c2noc(C(F)(F)F)n2)cc1)n1ccnc1 [Compound 8, 2-[4-[5-(trifluoromethyl)-1,2,4-oxadiazol-3-yl]phenyl]methyl-1H-imidazole-1-carboxylate], the “Test A disease control rating” value (Phakopsora pachyrhizi; 255 ppm) is reported as 100%, the “Test B disease control rating” value (Zymoseptoria tritici; 255 ppm) is reported as 13% and the “Test C disease control rating” value ([1]; 255 ppm) is reported as 100%.
For CNC(=O)OCc1ccc(-c2noc(C(F)(F)F)n2)cc1 [Compound 9], the “Test A disease control rating” value (Phakopsora pachyrhizi; 260 ppm) was 100%, the “Test B disease control rating” value (Zymoseptoria tritici; 260 ppm) was 94% and the “Test C disease control rating” value ([1]; 260 ppm) was 100%.
In the case of CCCNC(=O)OCc1ccc(-c2noc(C(F)(F)F)n2)cc1 [Compound 10], the “Test A disease control rating” value (Phakopsora pachyrhizi; 250 ppm) is reported as 100%, the “Test B disease control rating” value (Zymoseptoria tritici; [2]) is reported as 97% and the “Test C disease control rating” value ([1]; 250 ppm) is reported as 100%.
In the case of COCCNC(=O)OCc1ccc(-c2noc(C(F)(F)F)n2)cc1 [Compound 11], the “Test A disease control rating” value (Phakopsora pachyrhizi; 250 ppm) is reported as 100%, the “Test B disease control rating” value (Zymoseptoria tritici; [2]) is reported as 96% and the “Test C disease control rating” value ([1]; 250 ppm) is reported as 100%.
C#CCNC(=O)OCc1ccc(-c2noc(C(F)(F)F)n2)cc1 [Compound 12] was tested, and the “Test A disease control rating” value (Phakopsora pachyrhizi; 265 ppm) was 100%, the “Test B disease control rating” value (Zymoseptoria tritici; 265 ppm) was 100% and the “Test C disease control rating” value ([1]; 265 ppm) was 100%.
O=C(NCc1ccccc1)OCc1ccc(-c2noc(C(F)(F)F)n2)cc1 [Compound 13] was tested, and the “Test A disease control rating” value (Phakopsora pachyrhizi; 260 ppm) was 100%, the “Test B disease control rating” value (Zymoseptoria tritici; 260 ppm) was 36% and the “Test C disease control rating” value ([1]; 260 ppm) was 100%.
CCCCNC(=O)OCc1ccc(-c2noc(C(F)(F)F)n2)cc1 [Compound 15] was tested, and the “Test A disease control rating” value (Phakopsora pachyrhizi; 265 ppm) was 100%, the “Test B disease control rating” value (Zymoseptoria tritici; 265 ppm) was 92% and the “Test C disease control rating” value ([1]; 265 ppm) was 100%.
With CC(C)(C)NC(=O)OCc1ccc(-c2noc(C(F)(F)F)n2)cc1 [Compound 16] the “Test A disease control rating” value (Phakopsora pachyrhizi; 255 ppm) was 100%, the “Test B disease control rating” value (Zymoseptoria tritici; 255 ppm) was 19% and the “Test C disease control rating” value ([1]; 255 ppm) was 100%.
For NC(=O)OCc1ccc(-c2noc(C(F)(F)F)n2)cc1 [Compound 17, [4-[5-(trifluoromethyl)-1,2,4-oxadiazol-3-yl]phenyl]methyl carbamate], the pest or weed control at 260 ppm (Phakopsora pachyrhizi; Phakopsora pachyrhizi, 216 h, 260 ppm, read-out: Test A disease control rating) was 100%, the “Test B disease control rating” value (Zymoseptoria tritici; 260 ppm) was 92% and the pest or weed control at 260 ppm ([1]; Puccinia recondita, 168 h, 260 ppm, read-out: Test C disease control rating) was 100%.
For CCNC(=O)OCCCn1cc(-c2noc(C(F)(F)F)n2)cn1 [Compound 18], the pest or weed control at 50 ppm (Phakopsora pachyrhizi; Phakopsora pachyrhizi, 216 h, 50 ppm, read-out: Test A disease control rating) was 38%, the “Test B disease control rating” value (Zymoseptoria tritici; [2]) was 50* % and the pest or weed control at 50 ppm ([1]; Puccinia recondita, 168 h, 50 ppm, read-out: Test C disease control rating) was 0%.
In the case of C#CCN(C)C(=O)OCc1ccc(-c2noc(C(F)(F)F)n2)cc1 [Compound 32], the “Test A disease control rating” value (Phakopsora pachyrhizi; 10 ppm) is reported as 100%, the “Test B disease control rating” value (Zymoseptoria tritici; [2]) is reported as 0* % and the “Test C disease control rating” value ([1]; 10 ppm) is reported as 68%.
With C#CCCNC(=O)OCc1ccc(-c2noc(C(F)(F)F)n2)cc1 [Compound 33] the “Test A disease control rating” value (Phakopsora pachyrhizi; 10 ppm) was 100%, the “Test B disease control rating” value (Zymoseptoria tritici; [2]) was 0* % and the “Test C disease control rating” value ([1]; 10 ppm) was 100%.
In the case of CNC(=O)OCc1ccc(-c2noc(C(F)(F)F)n2)s1 [Compound 38], the “Test A disease control rating” value (Phakopsora pachyrhizi; 10 ppm) is reported as 94%, the “Test B disease control rating” value (Zymoseptoria tritici; [2]) is reported as 80* % and the “Test C disease control rating” value ([1]; 10 ppm) is reported as 96%.
CCNC(=O)OCc1ccc(-c2noc(C(F)(F)F)n2)s1 [Compound 39] was tested, and the “Test A disease control rating” value (Phakopsora pachyrhizi; 10 ppm) was 96%, the “Test B disease control rating” value (Zymoseptoria tritici; [2]) was 93* % and the “Test C disease control rating” value ([1]; 10 ppm) was 95%.
In the case of CNC(=O)OCCc1ccc(-c2noc(C(F)(F)F)n2)cc1 [Compound 42], the “Test A disease control rating” value (Phakopsora pachyrhizi; 10 ppm) is reported as 100%, the “Test B disease control rating” value (Zymoseptoria tritici; 10 ppm) is reported as 0% and the “Test C disease control rating” value ([1]; 10 ppm) is reported as 99%.
In the case of CCNC(=O)OCCc1ccc(-c2noc(C(F)(F)F)n2)cc1 [Compound 43, 2-[4-[5-(trifluoromethyl)-1,2,4-oxadiazol-3-yl]phenyl]ethyl N-ethylcarbamate], the pest or weed control at 10 ppm (Phakopsora pachyrhizi; Phakopsora pachyrhizi, 216 h, 10 ppm, read-out: Test A disease control rating) is reported as 100%, the “Test B disease control rating” value (Zymoseptoria tritici; [2]) is reported as 0* % and the pest or weed control at 10 ppm ([1]; Puccinia recondita, 168 h, 10 ppm, read-out: Test C disease control rating) is reported as 97%.
For CCCNC(=O)OCc1ccc(-c2noc(C(F)(F)F)n2)s1 [Compound 46], the “Test A disease control rating” value (Phakopsora pachyrhizi; 10 ppm) was 99%, the “Test B disease control rating” value (Zymoseptoria tritici; [2]) was 97* % and the “Test C disease control rating” value ([1]; 10 ppm) was 97%.
With CC(OC(=O)N(C)C)c1ccc(-c2noc(C(F)(F)F)n2)cc1 (stereo not drawn) [Compound 72] the “Test A disease control rating” value (Phakopsora pachyrhizi; 10 ppm) was 100%, the “Test B disease control rating” value (Zymoseptoria tritici; [2]) was 0* % and the “Test C disease control rating” value ([1]; 10 ppm) was 55%.
In the case of CCNC(=O)OC(COC)Cc1ccc(-c2noc(C(F)(F)F)n2)cc1 (stereo not drawn) [Compound 75], the “Test A disease control rating” value (Phakopsora pachyrhizi; 10 ppm) is reported as 100%, the “Test B disease control rating” value (Zymoseptoria tritici; [2]) is reported as 97* % and the “Test C disease control rating” value ([1]; 10 ppm) is reported as 91%.
C#CCNC(=O)OC(C)c1ccc(-c2noc(C(F)(F)F)n2)cc1 (stereo not drawn) [Compound 76] was tested, and the “Test A disease control rating” value (Phakopsora pachyrhizi; 10 ppm) was 100%, the “Test B disease control rating” value (Zymoseptoria tritici; [2]) was 0* % and the “Test C disease control rating” value ([1]; 10 ppm) was 99%.
In the case of CC(OC(=O)NC1CC1)c1ccc(-c2noc(C(F)(F)F)n2)cc1 (stereo not drawn) [Compound 77], the “Test A disease control rating” value (Phakopsora pachyrhizi; 10 ppm) is reported as 100%, the “Test B disease control rating” value (Zymoseptoria tritici; 10 ppm) is reported as 0% and the “Test C disease control rating” value ([1]; 10 ppm) is reported as 92%.
With CCOC(=O)NC(=O)OCCc1ccc(-c2noc(C(F)(F)F)n2)cc1 [Compound 78] the “Test A disease control rating” value (Phakopsora pachyrhizi; 10 ppm) was 100%, the “Test B disease control rating” value (Zymoseptoria tritici; 10 ppm) was 95% and the “Test C disease control rating” value ([1]; 10 ppm) was 91%.
In the case of CCOC(=O)NC(=O)OCc1ccc(-c2noc(C(F)(F)F)n2)cc1 [Compound 79], the “Test A disease control rating” value (Phakopsora pachyrhizi; 10 ppm) is reported as 100%, the “Test B disease control rating” value (Zymoseptoria tritici; 10 ppm) is reported as 98% and the “Test C disease control rating” value ([1]; 10 ppm) is reported as 97%.
In the case of NC(=O)OCc1ccc(-c2noc(C(F)(F)F)n2)cc1F [Compound 85], the “Test A disease control rating” value (Phakopsora pachyrhizi; 250 ppm) is reported as 100%, the “Test B disease control rating” value (Zymoseptoria tritici; [2]) is reported as 98% and the “Test C disease control rating” value ([1]; 250 ppm) is reported as 100%.
